How the values were obtained:
[1] = system: E. coli strain BAA-197 ESβL; assay: Selective lysis test, BacUni QuickFISH staining (Example 3); type: cell-based; conditions: FIG. 1; E. coli BAA-197 ESβL; meropenem 10 μg/ml, 30 min, SDS lysis
Excerpt: (§1) An alternative to the spectrophotometer-based measurement of changes in turbidity for measuring cell lysis following treatment with the cell lysis conditions in Examples 1 and 2 is to stain samples using a stain that distinguishes between intact cells and lysed cells. In this example staining with BacUni QuickFISH™ was used to identify intact (i.e., non-lysed) cells. BacUN1 is a universal bacteria PNA probe that binds to an rRNA sequence present in most Gram-positive and Gram-negative bacteria. The PNA probe binds to universal rRNA in intact bacterial cells and the entire cell will appears green with fluorescent microscopy. If the bacterial cell had been lysed then the rRNA target would have been released from the bacterial cell and even of somewhat labeled it would not appear as a fluorescent bacterial cell.
(§2) An isolated colony from an overnight Tryptocase Soy Agar (TSA) plate of each bacteria was suspended in 1 ml Tryptocase Soy Broth (TSB) in a 5 ml BD polystyrene round bottom tube. TSB cultures were incubated at 37° C. overnight. Ten μl of overnight culture was inoculated into 1 ml TSB and incubated shaking at 37° C. for three hours. Two 250 μl aliquots of each log-phase culture was transferred to two 2 ml Eppendorf microcentrifuge tubes. One tube contained 500 μl of Normal Saline (BD); the second tube contained 500 μl Normal Saline with meropenem at 10 μg/ml. Tubes were inverted and then incubated at 37° C. stagnant for thirty minutes. Then […] (0.5% SDS in PSB) was added to each tube and the tubes were vortexed for 5 seconds. Post incubation, the entire culture was filtered through a 1 uM polycarbonate 18 mm filter. The filter was transferred to a plain glass slide and placed on a 55° C. heat block. Then 2 drops of 100% methanol were added to adhere the filter to the slide. Then 30 μl of BacUni QuickFISH™ hybridization buffer was added to the slide and a 50×22 mm coverslip was applied. The slide was then incubated at 55° C. for 15 minutes. The slide was viewed on fluorescence microscope using 60× oil immersion on Dual TxR/FITC. Images were taken with a 1 second exposure.

E. coli strain 25922 = assay: as above; type: cell-based; conditions: FIG. 3; E. coli 25922; meropenem 10 μg/ml, 30 min, SDS lysis
Excerpt: as §1, §2

[2] = system: K. pneumoniae strain BAA2146 NDM+; assay: as above; type: cell-based; conditions: FIG. 5, meropenem 10 μg/ml, 30 min, SDS lysis
Excerpt: as §1, §2

K. pneumo BAA2146 (NDM+) = assay: Selective lysis test, flow cytometry cell count (Example 5); type: cell-based, K. pneumoniae; design: key to R or S: R: meropenem resistant strain; S: meropenem sensitive strain
Procedure: (§3) An isolated colony from overnight Tryptocase Soy Agar (TSA) plate for each bacteria was suspended in 1 ml Tryptocase Soy Broth (TSB) in a 5 ml BD polystyrene round bottom tube. TSB cultures were incubated at 37° C. overnight. Ten μl of overnight culture was inoculated into 1 ml TSB and incubated shaking at 37° C. for three hours. Two 250 μl aliquots of each log-phase culture were transferred to two 2 ml Eppendorf microcentrifuge tubes. One tube contained 500 μl of Normal Saline (BD); the second tube contained 504.1 Normal Saline with meropenem at 10 μg/ml. Tubes were inverted then incubated at 37° C. stagnant for thirty minutes. An aliquot was removed at this point for flow cytometry measurement of the total cell count. Then 250 μl lysis buffer (0.5% SDS in PSB) was added to each tube and each tube was vortexed for 5 seconds. Post incubation, all tubes were spun at 10000 G for 5 minutes. Supernatant was decanted and the pellet resuspended in Normal Saline. Tubes were vortexed.
(§4) Re-suspended pellets were then diluted 20 times into a solution of 10 mM Tris-HCl pH=7.6, containing 2.5 μM SYTO 9 (stain permeable to all bacterial cells). Stained bacterial cells were analyzed by flow cytometry using the Guava EasyCyte™ Mini System equipped with a 488 nm diode laser, capillary flow cell, forward and side scatter detectors and fluorescence (green, yellow and red) detectors. Flow cytometry dot plots were acquired with CytoSoft (Guava ExpressPlus) software and cell counts were obtained.

K. pneumo 13882 (NDM−) = assay: as above; type: cell-based, K. pneumoniae; design: key to R or S: R: meropenem resistant strain; S: meropenem sensitive strain
Procedure: as §3, §4

E. coli strain 35218 = assay: Carbapenem test, Triton fixation buffer and BacUni QuickFISH staining (Example 4); type: cell-based; conditions: FIG. 9; E. coli 35218; 10 μg/ml
Procedure: (§5) An isolated colony from an overnight Tryptocase Soy Agar (TSA) plate for each bacteria was suspended in 1 ml Tryptocase Soy Broth (TSB) in a 5 ml BD polystyrene round bottom tube. TSB cultures were incubated at 37° C. for 1.5 hours shaking. […] of each stationary-phase culture were transferred to 2 ml Eppendorf microcentrifuge tubes containing 500 μl of Normal Saline (BD); or 500 μl Normal Saline with imipenem, ertapenem, or meropenem at a concentration of […], […], or 40 μg/ml (26.67 μg/ml final concentration). Tubes were inverted then incubated at 37° C. stagnant for thirty minutes. Then 10 μl from each tube was pipetted onto plain glass slide on a 55° C. heat block, followed by 25 μl fixation buffer (0.5% T×100, 100 mM Tris pH 9, 24% Ethanol, and 10 mM NaCl); slide is incubated until sample is dry. Ten μl of BacUni QuickFISH hybridization buffer was added to each slide followed by a 22×22 mm coverslip. The slide was then incubated at 55° C. for 15 minutes. The slides were viewed on a fluorescence microscope 60× oil immersion on Dual TxR/FITC. Images were taken with a 1 second exposure.
(§6) The control fixation in this experiment has all the same components, except no Triton X-100. This was done to assess whether the selective lysis step is required to resolve a difference between susceptible and resistant bacteria.

[3] = system: K. pneumoniae strain 13882; assay: as above; type: cell-based; conditions: K. pneumoniae 13882
Procedure: as §5, §6

[4] = system: K. pneumoniae strain BAA2146 NDM+; assay: as above; type: cell-based
Procedure: as §5, §6

[5] = K. pneumo BAA2146 (NDM+), 10 μg/ml Meropenem, Post-lysis + spin
[6] = K. pneumo 13882 (NDM−), 10 μg/ml Meropenem, Post-lysis + spin

C[C@@H](O)[C@H]1C(=O)N2C(C(=O)O)=C(S[C@@H]3CN[C@H](C(=O)N(C)C)C3)[C@H](C)[C@H]12 [meropenem]
number of BacUni QuickFISH stained cells, treated vs not treated [1]: significant reduction in the number of stained cells
number of BacUni QuickFISH stained cells, treated vs not treated (E. coli strain 25922): significant reduction in the number of stained cells
number of BacUni QuickFISH stained cells, treated vs not treated [2]: similarity in the number of stained cells
Cell Number/ml (K. pneumo BAA2146 (NDM+); [5]): 2.83e+06 mL⁻¹
R or S (K. pneumo BAA2146 (NDM+); [5]): R
Cell Number/ml (K. pneumo BAA2146 (NDM+); K. pneumo BAA2146 (NDM+), 10 μg/ml Meropenem, Pre-lysis): 3.04e+06 mL⁻¹
reduction in cell number after lysis and centrifugation (K. pneumo BAA2146 (NDM+); K. pneumoniae BAA2146 (NDM+), meropenem treated sample, post-lysis vs pre-lysis): 7%
Cell Number/ml (K. pneumo 13882 (NDM−); [6]): 241000 mL⁻¹
R or S (K. pneumo 13882 (NDM−); [6]): S
Cell Number/ml (K. pneumo 13882 (NDM−); K. pneumo 13882 (NDM−), 10 μg/ml Meropenem, Pre-lysis): 2.38e+06 mL⁻¹
reduction in cell number after lysis and centrifugation (K. pneumo 13882 (NDM−); K. pneumoniae 13882 (NDM−), meropenem treated sample, post-lysis vs pre-lysis): 90%
test result (susceptibility or resistance) by BacUni QuickFISH staining (E. coli strain 35218): detect susceptibility
BacUni QuickFISH stained intact cells after meropenem and fixation buffer ([3]; FIG. 7, 10 μg/ml meropenem, fixation buffer with 0.5% Triton X-100): near complete absence of BacUni QuickFISH™ stained intact cells
test result (susceptibility or resistance) by BacUni QuickFISH staining ([3]; FIG. 10, 10 μg/ml): detect susceptibility
BacUni QuickFISH stained intact cells after meropenem and fixation buffer ([4]; FIG. 8, 10 μg/ml meropenem, fixation buffer with 0.5% Triton X-100): near complete absence of BacUni QuickFISH™ stained intact cells
test result (susceptibility or resistance) by BacUni QuickFISH staining ([4]; FIG. 11, 10 μg/ml): detect resistance

Reference: patent publication US20160281125A1, “ANTIMICROBIAL COMPOUND SUSCEPTIBILITY TEST” (priority 2013, published 2016)
